Laboratory results reported in the supplement of paper PMC10307832.

Assays:
Assay in all cases: relative viability (nuclei count vs DMSO), 5 days (fraction); higher = more cells survive
Tivantinib + Pemetrexed = compound: O=C1NC(=O)[C@@H](c2cn3c4c(cccc24)CCC3)[C@@H]1c1c[nH]c2ccccc12 [Tivantinib] + Nc1nc2[nH]cc(CCc3ccc(C(=O)N[C@@H](CCC(=O)O)C(=O)O)cc3)c2c(=O)[nH]1 [Pemetrexed] (partner 0.2 µM)
Outline: (§1)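 Medians of duplicate plates are given as relative viability. That measure is the nuclei count in treated wells divided by the count in vehicle wells. Counts were taken on 4× images of lung cancer cell lines in 1536-well plates, 5 days after pin-tool dosing the day after seeding with one drug alone or a fixed anchor-drug dose plus five library-drug doses (not always all listed) in √10 steps.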

Crenolanib + Alpelisib = compound: CC1(COc2ccc3c(c2)ncn3-c2ccc3cccc(N4CCC(N)CC4)c3n2)COC1 [Crenolanib] + Cc1nc(NC(=O)N2CCC[C@H]2C(N)=O)sc1-c1ccnc(C(C)(C)C(F)(F)F)c1 [Alpelisib] (partner 2 µM)
Outline: as §1

Tivantinib + Alpelisib = compound: O=C1NC(=O)[C@@H](c2cn3c4c(cccc24)CCC3)[C@@H]1c1c[nH]c2ccccc12 [Tivantinib] + Cc1nc(NC(=O)N2CCC[C@H]2C(N)=O)sc1-c1ccnc(C(C)(C)C(F)(F)F)c1 [Alpelisib] (partner 2 µM)
Outline: as §1

Crenolanib + Phenformin = compound: CC1(COc2ccc3c(c2)ncn3-c2ccc3cccc(N4CCC(N)CC4)c3n2)COC1 [Crenolanib] + N=C(N)NC(=N)NCCc1ccccc1 [Phenformin] (partner 250 µM)
Outline: as §1

Question: UMC-11 was tested. Which relative viability (Tivantinib + Pemetrexed; first compound 0.01 µM) did it give?
Answer: Its relative viability is 0.772.

Question: And the relative viability (Tivantinib + Pemetrexed; first compound 0.03162 µM)?
Answer: The relative viability was 0.759.

Question: And the relative viability (Tivantinib + Pemetrexed; first compound 0.1 µM)?
Answer: Its relative viability is 0.75.

Question: What about the relative viability (Tivantinib + Pemetrexed; first compound 0.3162 µM) of the same cell line?
Answer: The relative viability was 0.803.

Question: What about the relative viability (Crenolanib + Alpelisib; first compound 0.01 µM) of the same cell line?
Answer: The relative viability was 1.06.

Question: And the relative viability (Crenolanib + Alpelisib; first compound 0.03162 µM)?
Answer: The relative viability was 0.958.

Question: And the relative viability (Crenolanib + Alpelisib; first compound 0.1 µM)?
Answer: The relative viability was 0.956.

Question: What about the relative viability (Crenolanib + Alpelisib; first compound 0.3162 µM) of the same cell line?
Answer: The relative viability was 1.14.

Question: What about the relative viability (Crenolanib + Alpelisib; first compound 1 µM) of the same cell line?
Answer: The relative viability was 0.989.

Question: And the relative viability (Tivantinib + Alpelisib; first compound 0.01 µM)?
Answer: The relative viability was 0.961.

Question: And the relative viability (Tivantinib + Alpelisib; first compound 0.03162 µM)?
Answer: The relative viability was 0.939.

Question: What about the relative viability (Tivantinib + Alpelisib; first compound 0.1 µM) of the same cell line?
Answer: The relative viability was 0.876.

Question: And the relative viability (Tivantinib + Alpelisib; first compound 0.3162 µM)?
Answer: Its relative viability is 0.939.

Question: What about the relative viability (Crenolanib + Phenformin; first compound 0.01 µM) of the same cell line?
Answer: The relative viability was 0.346.

Question: And the relative viability (Crenolanib + Phenformin; first compound 0.03162 µM)?
Answer: The relative viability was 0.323.

Question: And the relative viability (Crenolanib + Phenformin; first compound 0.1 µM)?
Answer: Its relative viability is 0.325.

Question: And the relative viability (Crenolanib + Phenformin; first compound 0.3162 µM)?
Answer: Its relative viability is 0.329.

Question: And the relative viability (Crenolanib + Phenformin; first compound 1 µM)?
Answer: Its relative viability is 0.269.
